Experimental data: patent US20110236395A1, “TREATMENT OF FIBROTIC EYE DISORDERS USING AN MMP2 INHIBITOR” (UNIVERSITY OF EAST ANGLIA, priority 2008, published 2011)

What was measured:
HLE-B3 = HLE-B3 cell line; cited from earlier work
excised rat lenses = settings: concentrations typically micromolar; cited from earlier work
FHL 124 cells = experiment: Patch contraction assay (TGF-β-induced matrix contraction); assay type: cell-based, human
Protocol: FIG. 2. […] FHL 124 cells were seeded to form patches, maintained in serum-free medium before exposure to experimental conditions. All cultures were maintained for 72 hours in 5% EMEM (Eagle's minimal essential medium) alone or 5% FCS (fetal calf serum) EMEM supplemented with 10 ng/mL TGF-β1 or -β2±the MMP inhibitor GM6001 (25 μM). (A) Visual representations of patch assay cultures in different experimental conditions. (B) Quantified data showing differences in patch area. (C) Data showing differences in cell populations between patch areas (Coomassie blue dye was extracted and quantified from the same experiment as presented in (B)). In FIGS. 2(B) and (C) each left hand bar of the bar pairs reports the result in the absence of GM6001 (indicated as “−GM6001” in the key) and the right hand bar reports the result in the presence of GM6001 (indicated as “+GM6001” in the key). Data represent mean±SEM. * Indicates a significant difference from unstimulated control cells. # Indicates a significant difference between siMMP2 treated cells and SCR siRNA counterparts (p≦0.05, ANOVA with the Tukey test).
FIG. 6. MMP2 is important for TGF-β-induced matrix contraction. FHL 124 cells were seeded to form patches, then transfected with siRNA targeted to MMP2 or SCR negative control and maintained in Optimem™ (Invitrogen Corporation; Optimem is a modified EMEM, buffered with HEPES and sodium bicarbonate and supplemented with hypoxanthine, thymidine, sodium pyruvate, L-glutamine or Glutamax, trace elements and growth factor; the protein level is minimal (15 μg/mL) with insulin and transferrin being the only protein supplements; phenol red is included as a pH indicator). Patches were measured after 72 hours of culture with 10 ng/mL TGF-β1 or […]. (A) Visual representations of patch assay cultures in different experimental conditions. (B) Quantified data showing differences in patch area. (C) Data showing differences in cell populations between patch areas (Coomassie blue dye was extracted and quantified from the same experiment as presented in (B)). In FIGS. 6(B) and (C) each left hand bar of the bar pairs reports the result with Scramble siRNA (indicated as “Scramble SiRNA” in the key) and the right hand bar reports the result in the presence of MMP2 specific siRNA (indicated as “MMP2 SiRNA” in the key). The data in (B) and (C) represent the mean±SEM (n≦4). *Indicates a significant difference from unstimulated control cells. # Indicates a significant difference between siMMP2 treated cells and SCR siRNA counterparts (p≦0.05, ANOVA with the Tukey test).
FIG. 7. MMP2 inhibition using neutralising antibody ([…]) prevents TGF-β2 (10 ng/ml)-induced matrix contraction assessed by patch assay. In FIG. 7(B) each left hand bar of the bar pairs reports the result in the absence of the antibody (indicated as “−4 μg/ml Anti MMP2” in the key) and the right hand bar reports the result in the presence of the antibody (indicated as “+4 μg/ml Anti MMP2” in the key). Data expressed as Mean±SEM (n=3).
FHL 124 cells were seeded at four sites on a tissue culture dish at 5000 cells in 25 μl and maintained in EMEM supplemented with 5% FCS until confluent regions spanning about 5 mm developed (Wormstone et al, Exp. Eye Res. (2004), 78, pages 705-14). The medium was then replaced with non-supplemented EMEM, and the cells were cultured for a further 24 hours, followed by the removal of medium from four patch culture dishes fixed for 30 minutes with 4% formaldehyde at room temperature, followed by washing in PBS. The patches were used as a t=0 reference control.
All remaining cell cultures were exposed to experimental conditions for up to 3 days. Experiments were terminated after the appearance of cell-free regions (holes) within the central region of the patch, by fixation for 30 minutes with 4% formaldehyde at room temperature. […]

[1] = test system: posterior capsule / capsular bag; settings: in the absence of TGF-β; cited from earlier work
[2] = 25 μM GM6001 in presence of 10 ng/ml TGF-β1 or TGF-β2, 72 hours

| Structure (SMILES) | TGF-β1-induced morphological change in the cells (HLE-B3) | occurrence of TGF-β-induced anterior subcapsular cataracts (ASCs) (excised rat lenses) | effect on patch area relative to control (FHL 124 cells; 25 μM GM6001 alone (no TGF-β), 72 hours, vs control 5% FCS EMEM group) | formation of cell free zones (FHL 124 cells; [2]) | patch area vs un-stimulated control group (FHL 124 cells; [2]) | TGF-β-induced matrix contraction (FHL 124 cells; GM6001 25 μM, 10 ng/mL TGF-β1 or -β2, 72 hours (FIG. 2 legend)) | total protein content by Coomassie blue dye extraction (cell population) (FHL 124 cells; patches ± 10 ng/ml TGF-β1 or -β2 ± GM6001, 72 hours) | capsular bag contraction [1] | cell migration onto the posterior capsule surface [1] |
| --- | --- | --- | --- | --- | --- | --- | --- | --- | --- |
| O=C(O)[C@@H](Cc1ccccc1)NS(=O)(=O)c1ccc(-c2ccccc2)cc1 [(2R)-2-[(4-biphenylylsulphonyl)amino]-3-phenylpropionic acid] | blocked | – | – | – | – | – | – | – | – |
| O=C(NO)[C@@H](Cc1ccccc1)NS(=O)(=O)c1ccc(-c2ccccc2)cc1 [(2R)-[(4-biphenylylsulfonyl)amino]-N-hydroxyl-3-phenylpropionamide] | – | prevents the occurrence | – | – | – | – | – | – | – |
| CNC(=O)[C@H](Cc1c[nH]c2ccccc12)NC(=O)[C@@H](CC(=O)NO)CC(C)C [GM6001, N-[(2R)-2-(hydroxamidocarbonylmethyl)-4-methylpentanoyl]-L-trypto-phan methylamide] | – | prevents the occurrence | no significant effect on patch area | suppressed the formation of cell free zones | did not significantly differ from the un-stimulated control group | prevents TGF-β-induced matrix contraction | no significant changes | suppress consequent capsular bag contraction | suppress cell migration onto the posterior capsule surface |
